Here are results for two compounds from patent publication US9642922B2, “Caspase-triggered nano-aggregation probes and methods of use” (The Board of Trustees of the Leland Stanford Junior …, priority 2013, dated 2017).

Numbered stars: 1 amine (or outer) side, 2 acyl side, 3 side chain; on linkers, the order of the positions; unused ones are H or OH. Square brackets hold non-standard residues; d marks the D form. Peptide text beside a SMILES is read from it. * marks the point of attachment. DOTA = O=C(O)CN1CCN(CC(=O)O)CCN(CC(=O)*)CCN(CC(=O)O)CC1; X1 = O=C(C1CSC(c2nc3ccc(N[*:1])cc3s2)=N1)[*:2]; X2 = N#Cc1ccc2cc(OCCCN*)ccc2n1; SEt = CCS*

Data set [1] addresses T1, caspase-9 (Homo sapiens, UniProt P55211).
T1 construct: purchased Calbiochem; host or cells: E. coli
Description: HPLC enzyme specificity assay of C-SNAF, caspase-9. The class given is biochemical. The following applies: 25 μM probe, 0.735 μg/ml enzyme. The protocol:
(§1) The specificity of C-SNAF towards other representative cysteine proteases such as caspase-7, caspase-9, cathepsin B, and legumain was examined.
(§2) Caspase (human, recombinant from E. coli) assays were performed for caspase-3 (4.9×10^−3 U; 7.35×10^−4 mg, Sigma), −7 (18.3 U; 7.35×10^−4 mg, Calbiochem), and −9 (0.3 U; 7.35×10^−4 mg, Calbiochem). All caspase assays were conducted in caspase buffer with 50 mM HEPES, 100 mM NaCl, 1 mM EDTA, 10 mM TCEP, 10% glycerol, and 0.1% CHAPS at pH 7.4. Cathepsin B (human liver; 0.27 U; 7.35×10^−4 mg, Calbiochem) and Legumain (human, recombinant from mouse myeloma cell line; >250 pmol/min/μg; 7.35×10^−4 mg, R&D Systems) were conducted in reaction buffer with 50 mM sodium acetate, 50 mM NaCl, 0.5 mM EDTA and 10 mM TCEP at pH 5.5. C-SNAF was diluted in the respective enzyme reaction buffer (25 μM, 1 mL) and remained at room temperature for 10 min, to which was then added the respective enzymes. Reactions were performed at 37° C., and monitored by HPLC hourly. The percentage conversion of the reaction was calculated based on the percentage of peak area of C-SNAF-cycl in the HPLC trace at 675 nm UV detection, which indicated the efficacy of enzyme cleavage of C-SNAF.

Data set [2] has as its system caspase-3/7. Description: HPLC analysis of C-SNAF reaction in apoptotic cell lysates. It counts as biochemical, human. Particulars: 5 μM, lysate of STS- and DOX-induced apoptotic HeLa or MDA-MB-231 cells. As for the experimental part: To confirm the formation of the caspase-3/7-triggered intramolecular cyclization product C-SNAF-cycl in apoptotic cells, C-SNAF (5 μM) was incubated with both cell lysates and whole cells, and the products were analyzed by HPLC. […] However, more than 90% of C-SNAF was converted to C-SNAF-cycl in the lysate of STS- and DOX-induced apoptotic HeLa (FIG. 12A) or MDA-MB-231 cells, indicating the efficient intramolecular condensation initiated by caspase-3/7 in a complex cellular environment.
The culture medium was carefully removed and the cells were washed with cold 1×PBS. The cells were trypsinized to form cell pellets, and RIPA (RadioImmuno Precipitation Assay, sigma) buffer was added to cells using 100 μL of buffer per 4×10^6 cells. Then the cells were kept on ice for 0.5 h. The cell lysate was gathered, centrifuged at 14,000×g for 15 min at 4° C. The supernatant of the cell lysate was collected, and the caspase-3/7 activity in the lysate was determined by CASPASE-GLO® 3/7 assay. The cell lysate was diluted with caspase reaction buffer (2×, 1:1 diluted), and incubated with C-SNAF (5 μM) at 37° C. overnight and then injected into an HPLC system (Dionex) for analysis.

The target of data set [3] is T2, cathepsin B (Homo sapiens, UniProt P07858).
T2 construct: Cathepsin B (human liver; 0.27 U; 7.35×10^−4 mg, Calbiochem); purchased Calbiochem; host or cells: human liver (tissue-derived)
Description: HPLC enzyme specificity assay of C-SNAF, cathepsin B. It counts as biochemical. The following applies: 25 μM probe, 0.735 μg/ml enzyme, pH 5.5. As for the experimental part: as §1, §2

In data set [4] the target is T1, caspase-9. Description: T1 measurement of probe 15 with caspase-9. It counts as biochemical. The following applies: probe 208 μM, protease 50 nM, 1 T. The protocol:
The enzyme specificity of probe 15 was studied by measuring the T1 value resulting from probe incubation (208 μM) with any of five relevant subcellular proteases (caspase-3, -7, -9, cathepsin B and legumain) in enzyme buffer. […] The reduced T1 value in solution was inhibited by the caspase inhibitor Z-VAD-fmk (50 μM).
Caspase (human, recombinant from E. coli) assays were performed for caspase-3 (4.9×10^−3 U; 7.35×10^−4 mg, Sigma), −7 (18.3 U; 7.35×10^−4 mg, Calbiochem), and −9 (0.3 U; 7.35×10^−4 mg, Calbiochem). All caspase assays were conducted in caspase buffer with 50 mM HEPES, 100 mM NaCl, 1 mM EDTA, 10 mM TCEP, 10% glycerol, and 0.1% CHAPS at pH 7.4.

Data set [5] relates to viable HeLa cells. Description: Cell viability study (trypan blue). It counts as cell-based, human. The following applies: 250 μM for 24 h. As for the experimental part:
About 2×10^5 HeLa cells in 1 mL DMEM medium were seeded onto 12-well plates. […] After 24 h incubation, the medium was removed, and the cells were trypsinized. The cell number was counted using trypan blue assay. The viability of cell with blank medium was set as 100%, and cells incubating with 1 or Dotarem were normalized to that in blank medium.

Data set [6] concerns the target T3, caspase-3 (Homo sapiens, UniProt P42574).
T3 sequence (P42574 29-175 limits assumed): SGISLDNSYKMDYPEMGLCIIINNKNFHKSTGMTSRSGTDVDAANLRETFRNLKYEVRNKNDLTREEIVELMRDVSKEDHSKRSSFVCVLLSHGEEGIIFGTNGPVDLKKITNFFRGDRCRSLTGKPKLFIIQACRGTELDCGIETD
T3 sequence (P42574 176-277 limits assumed): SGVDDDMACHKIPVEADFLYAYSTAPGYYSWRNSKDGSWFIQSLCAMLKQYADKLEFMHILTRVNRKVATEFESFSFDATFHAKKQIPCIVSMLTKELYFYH
Description: HPLC assay of caspase-3-triggered cyclization of MRI probe 15. On the set-up: purchased Sigma; host or cells: E. coli. It counts as biochemical. Particulars: 200 μM probe, caspase-3 50 nM, 5 h. As for the experimental part:
The progression of caspase-3-triggered intramolecular cyclization of probe 15 in solution was investigated by incubation (200 μM) with recombinant human caspase-3 (50 nM) using high-performance liquid chromatography (HPLC). […] More than 90% of probe 15 and its disulfide bond reduced intermediates could be converted after 5 h (FIG. 27B).

T1 sequence (P55211 1-315 limits assumed): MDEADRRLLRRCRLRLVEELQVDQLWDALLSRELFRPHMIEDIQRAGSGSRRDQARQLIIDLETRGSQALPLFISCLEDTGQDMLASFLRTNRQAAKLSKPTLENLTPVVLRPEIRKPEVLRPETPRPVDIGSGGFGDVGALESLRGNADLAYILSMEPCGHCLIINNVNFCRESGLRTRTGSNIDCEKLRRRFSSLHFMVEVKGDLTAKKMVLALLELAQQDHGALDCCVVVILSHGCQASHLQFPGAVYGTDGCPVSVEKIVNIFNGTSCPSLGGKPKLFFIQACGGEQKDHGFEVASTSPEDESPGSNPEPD

Consider `CCSSC[C@@H](NC(=O)[C@H](CC(=O)O)NC(=O)[C@@H](NC(=O)[C@H](CCC(=O)O)NC(=O)[C@H](CC(=O)O)NC(C)=O)C(C)C)C(=O)N[C@@H](CCCCNC(=O)CCCCCN1C(=CC=CC=CC2=[N+](CC)c3ccc4c(S(=O)(=O)[O-])cc(S(=O)(=O)O)cc4c3C2(C)C)C(C)(C)c2c1ccc1c(S(=O)(=O)O)cc(S(=O)(=O)O)cc21)C(=O)Nc1ccc2nc(C3=N[C@@H](C(=O)NCCCOc4ccc5nc(C#N)ccc5c4)CS3)sc2c1` [C-SNAF], for which, in data set [1], the “activity of caspase-9 towards probe” value was “essentially no activity”. Besides, the “C-SNAF converted to C-SNAF-cycl in lysate” value in data set [2] is on record as “more than 90%”. Besides, the “activation by cathepsin B” value in data set [3] is “neither lysosomal cysteine proteases cathepsin B nor legumain could significantly activate”.

As for `CCSSCC(NC(=O)C(CC(=O)O)NC(=O)C(NC(=O)C(CCC(=O)O)NC(=O)C(CC(=O)O)NC(C)=O)C(C)C)C(=O)NC(CCCCNC(=O)CN1CCN(CC(=O)[O-])CCN(CC(=O)[O-])CCN(CC(=O)[O-])CC1)C(=O)Nc1ccc2nc(C3=NC(C(=O)NCCCOc4ccc5nc(C#N)ccc5c4)CS3)sc2c1.[Gd+3]` (stereo not drawn) [probe 15] (Ac-DEVDC(SEt)K(DOTA)[X1]-X2; configuration not given here), the “T1 value after incubation with caspase-9” value in data set [4] was “No reduced T1 value”. Besides, the “cytotoxicity, effect on cell viability” value in data set [5] is recorded as “no adverse effects on cell viability”. Besides, the “probe and disulfide-reduced intermediates converted to cyclized products” value in data set [6] is given as “More than 90%”.
